Source: ChEMBL document CHEMBL1201862, “PubChem BioAssay data set” (2004)
The source made the active and inactive calls. Rule as the data show it: actives have a measured IC50 and inactives only a lower limit.

Molecular target: Envelope glycoprotein gp160 (Human immunodeficiency virus 1, UniProt Q6QLK5)
Experiment: inhibitors of HIV fusion peptide binding, primary screen, biochemical, uHTS, fluorescence dequenching (AID 1986)

Envelope glycoprotein gp160, sequence (Q6QLK5 whole entry, the tested form may be a part): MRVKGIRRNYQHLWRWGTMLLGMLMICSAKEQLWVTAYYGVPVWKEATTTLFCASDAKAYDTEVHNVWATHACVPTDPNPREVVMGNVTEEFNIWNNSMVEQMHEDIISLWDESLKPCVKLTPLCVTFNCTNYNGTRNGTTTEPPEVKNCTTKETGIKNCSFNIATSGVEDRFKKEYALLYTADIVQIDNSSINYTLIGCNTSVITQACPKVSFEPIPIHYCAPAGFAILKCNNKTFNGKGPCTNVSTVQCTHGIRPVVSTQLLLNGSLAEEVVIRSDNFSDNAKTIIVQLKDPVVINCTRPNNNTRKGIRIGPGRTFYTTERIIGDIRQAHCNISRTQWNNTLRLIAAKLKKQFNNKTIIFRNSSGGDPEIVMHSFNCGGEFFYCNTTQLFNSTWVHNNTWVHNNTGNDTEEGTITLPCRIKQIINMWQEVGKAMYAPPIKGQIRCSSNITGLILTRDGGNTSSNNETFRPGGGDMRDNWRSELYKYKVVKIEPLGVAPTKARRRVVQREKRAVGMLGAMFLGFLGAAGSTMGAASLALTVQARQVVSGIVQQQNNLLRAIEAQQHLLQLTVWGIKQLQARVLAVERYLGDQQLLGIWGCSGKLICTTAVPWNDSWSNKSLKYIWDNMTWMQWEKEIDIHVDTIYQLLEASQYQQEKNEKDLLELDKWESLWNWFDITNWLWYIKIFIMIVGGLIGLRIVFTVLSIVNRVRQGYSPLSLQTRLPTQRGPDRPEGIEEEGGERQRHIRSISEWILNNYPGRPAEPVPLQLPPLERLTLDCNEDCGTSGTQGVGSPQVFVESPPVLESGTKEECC

Row | Structure (SMILES) | IC50
1 | N#Cc1c(-c2ccccc2)nc(SCc2cccc(C(F)(F)F)c2)[nH]c1=O | 10.4 µM (active)
2 | O=[N+]([O-])c1cc(Cl)cc(/C=N/NC(=S)Nc2cc(S(=O)(=O)N3CCOCC3)ccc2Cl)c1O | 9.41 µM (active)
